Results: patent publication US12209102B2, “Heterocyclic compounds and uses thereof” (Kumquat Biosciences Inc., priority 2022, dated 2025)

Tests used:
[1] = tested on: A549 cells; experiment: Ras cellular assay, growth of cells with K-Ras G12S mutation (CellTiter-Glo); assay type: cell-based; conditions: Homo sapiens, cell growth, Example 9, G12S mutation, read-out: IC50 against A549 cells
Procedure: For example, this assay can be also used to assess a selective growth inhibition of a mutant Ras protein relative to a wildtype, or relative to a different mutant Ras protein.
A549 (ATCC CCL-185) and LS123 (ATCC CCL-255) cell lines comprise a G12S mutation and can be used to assess Ras cellular signaling in vitro, e.g., in response to the compounds herein. A549 culture medium is prepared with RPMI-1640 and 10% heat-inactivated FBS. LS123 culture medium is prepared with RPMI-1640 and 10% heat-inactivated FBS. A CellTiter-Glo (CTG) luminescent based assay (Promega) is used to assess growth of the cells, as a measurement of the ability of the compounds herein to inhibit Ras signaling in the cells. The cells (e.g., 800 per well) are seeded in their respective culture medium in standard tissue culture-treated 384-well format plates (Falcon #08-772-116) or ultra-low attachment surface 384-well format plates (S-Bio #MS-9384WZ). The day after plating, cells are treated with a dilution series (e.g., a 10 point 3-fold dilution series) of the compounds herein (e.g., approximately 40 μL final volume per well). Cell viability can be monitored (e.g., approximately 6 days later) according to the manufacturer's recommended instructions, where the CellTiter-Glo reagent is added (e.g., approximately 10 μL), vigorously mixed, covered, and placed on a plate shaker (e.g., approximately for 20 min) to ensure sufficient cell lysis prior to assessment of luminescent signal. The IC50 values are determined using the four parameter fit. The resulting IC50 value is a measurement of the ability of the compounds herein to reduce cell growth of Ras-driven cells (e.g., tumor cell lines) in vitro and/or in vivo.

[2] = target: T1, K-Ras G12S (Homo sapiens, UniProt P01116, G12S); experiment: HTRF resonance energy transfer assay, K-Ras G12S / SOS1 interaction; assay type: biochemical; conditions: HTRF assay of Example 5; read-out: IC50 against K-Ras G12S
T1 construct: made in house; host or cells: E. coli BL21 (DE3)
Outline: (§1)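 Buffer about 5 mM HEPES pH 7.4 with ~150 mM NaCl, ~1 mM DTT, 0.05% BSA, 0.0025% (v/v) Igepal. Protein constructs used at molarity matching the IC50 range studied (e.g. ~500 nM). FRET between tagged K-Ras and hSOS1 measured after short incubation.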

[3] = target: T2, K-Ras WT (Homo sapiens, UniProt P01116); experiment: HTRF resonance energy transfer assay, K-Ras WT / SOS1 interaction; assay type: biochemical; conditions: HTRF assay of Example 5; read-out: IC50 against K-Ras WT
T2 construct: made in house; host or cells: E. coli BL21 (DE3)
Outline: as §1

[4] = target: T3, K-Ras G12V (Homo sapiens, UniProt P01116, G12V); experiment: HTRF resonance energy transfer assay, K-Ras G12V / SOS1 interaction; assay type: biochemical; conditions: HTRF assay of Example 5; read-out: IC50 against K-Ras G12V
T3 construct: made in house; host or cells: E. coli BL21 (DE3)
Outline: as §1

[5] = tested on: SW620 cells; experiment: Ras cellular assay, growth of cells with K-Ras G12V mutation (CellTiter-Glo); assay type: cell-based; conditions: Homo sapiens, SW-620; cell growth, Example 9, G12V mutation; read-out: IC50 against SW620 cells
Outline: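 IC50 values came from a four-parameter fit of CellTiter-Glo viability, read roughly 6 days after dosing with e.g. a 10-point threefold dilution series. G12V-mutant SW620 cells (e.g. 800 per well) had been plated the previous day in RPMI-1640/10% heat-inactivated FBS, on tissue culture-treated or ultra-low attachment plates.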

[6] = target: T4, K-Ras G12D (Homo sapiens, UniProt P01116, G12D); experiment: HTRF resonance energy transfer assay, K-Ras G12D / SOS1 interaction; assay type: biochemical; conditions: HTRF assay of Example 5; read-out: IC50 against K-Ras G12D
T4 construct: made in house; host or cells: E. coli BL21 (DE3)
Outline: as §1

T1 sequence (P01116 1-188 isoform P01116-2 G12S): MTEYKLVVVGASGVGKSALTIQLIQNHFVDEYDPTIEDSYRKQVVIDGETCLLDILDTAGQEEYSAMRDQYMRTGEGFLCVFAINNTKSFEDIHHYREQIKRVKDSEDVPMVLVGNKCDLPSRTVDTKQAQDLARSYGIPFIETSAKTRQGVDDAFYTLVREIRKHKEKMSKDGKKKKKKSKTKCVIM
T2 sequence (P01116 1-188 isoform P01116-2): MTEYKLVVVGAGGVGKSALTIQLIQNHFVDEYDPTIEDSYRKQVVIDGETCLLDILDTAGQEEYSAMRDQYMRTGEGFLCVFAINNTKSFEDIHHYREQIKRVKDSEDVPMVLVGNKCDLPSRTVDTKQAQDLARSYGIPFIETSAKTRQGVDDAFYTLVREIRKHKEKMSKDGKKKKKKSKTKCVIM
T3 sequence (P01116 1-188 isoform P01116-2 G12V): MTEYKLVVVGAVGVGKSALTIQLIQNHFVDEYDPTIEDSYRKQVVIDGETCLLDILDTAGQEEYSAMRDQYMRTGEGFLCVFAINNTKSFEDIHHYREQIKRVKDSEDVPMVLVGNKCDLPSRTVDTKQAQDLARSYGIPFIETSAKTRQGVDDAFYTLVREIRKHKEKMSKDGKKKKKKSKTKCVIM
T4 sequence (P01116 1-188 isoform P01116-2 G12D): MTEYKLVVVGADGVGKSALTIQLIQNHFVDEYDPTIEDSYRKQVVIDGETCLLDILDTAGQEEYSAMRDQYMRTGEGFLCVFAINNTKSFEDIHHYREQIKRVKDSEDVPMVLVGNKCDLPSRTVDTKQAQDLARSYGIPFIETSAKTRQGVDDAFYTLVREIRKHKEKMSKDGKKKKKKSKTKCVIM

`N#Cc1c(N)sc2c(F)ccc(-c3c(Cl)c4c5c(nc(OC[C@@]67CCCN6C[C@H](F)C7)nc5c3F)N(C3CCCC3)CCO4)c12` [Compound 639, 2-amino-4-(8-chloro-4-cyclopentyl-10-fluoro-2-(((2R,7aS)-2-fluorotetrahydro-1H-pyrrolizin-7a(5H)-yl)methoxy)-5,6-dihydro-4H-[1,4]oxazepino[5,6,7-de]quinazolin-9-yl)-7-fluorobenzo[b]thiophene-3-carbonitrile] was tested, and the IC50 [1] was < 5000 nM, the IC50 [2] was < 100 nM and the IC50 [3] was < 100 nM. For the same molecule, the IC50 [4] was < 100 nM, the IC50 [5] was < 5000 nM and the IC50 [6] was < 100 nM.

With `N#Cc1c(N)sc2c(F)ccc(-c3c(Cl)c4c5c(nc(OC[C@@]67CCCN6C[C@H](F)C7)nc5c3F)N(C3CCCN(C(=O)[C@@H]5N[C@H]5C5CC5)C3)CCO4)c12` (stereo partly drawn) [Compound 643, 2-amino-4-(8-chloro-4-(1-((2R,3S)-3-cyclopropylaziridine-2-carbonyl)piperidin-3-yl)-10-fluoro-2-(((2R,7aS)-2-fluorotetrahydro-1H-pyrrolizin-7a(5H)-yl)methoxy)-5,6-dihydro-4H-[1,4]oxazepino[5,6,7-de]quinazolin-9-yl)-7-fluorobenzo[b]thiophene-3-carbonitrile] the IC50 [1] was < 5000 nM, the IC50 [2] was < 100 nM and the IC50 [3] was < 100 nM. For the same molecule, the IC50 [4] was < 100 nM, the IC50 [5] was < 5000 nM and the IC50 [6] was < 100 nM.

In the case of `CC(O)C1C(C)Oc2c(Cl)c(-c3ccc(F)c4sc(N)c(C#N)c34)c(F)c3nc(OC[C@@]45CCCN4C[C@H](F)C5)nc(c23)N1CC(F)F` (stereo partly drawn) [Compound 646, 2-amino-4-(8-chloro-4-(2,2-difluoroethyl)-10-fluoro-2-(((2R,7aS)-2-fluorotetrahydro-1H-pyrrolizin-7a(5H)-yl)methoxy)-5-(1-hydroxyethyl)-6-methyl-5,6-dihydro-4H-[1,4]oxazepino[5,6,7-de]quinazolin-9-yl)-7-fluorobenzo[b]thiophene-3-carbonitrile], the IC50 [1] is reported as < 5000 nM, the IC50 [2] is reported as < 100 nM and the IC50 [3] is reported as < 100 nM. The IC50 [4] was < 100 nM, the IC50 [5] was < 5000 nM and the IC50 [6] was < 100 nM.

With `CC1Oc2c(Cl)c(-c3ccc(F)c4sc(N)c(C#N)c34)c(F)c3nc(OC[C@@]45CCCN4C[C@H](F)C5)nc(c23)N(CC(F)F)C1C(C)(C)O` (stereo partly drawn) [Compound 655, 2-amino-4-(8-chloro-4-(2,2-difluoroethyl)-10-fluoro-2-(((2R,7aS)-2-fluorotetrahydro-1H-pyrrolizin-7a(5H)-yl)methoxy)-5-(2-hydroxypropan-2-yl)-6-methyl-5,6-dihydro-4H-[1,4]oxazepino[5,6,7-de]quinazolin-9-yl)-7-fluorobenzo[b]thiophene-3-carbonitrile] the IC50 [1] was < 5000 nM, the IC50 [2] was < 100 nM and the IC50 [3] was < 100 nM. For the same molecule, the IC50 [4] was < 100 nM, the IC50 [5] was < 5000 nM and the IC50 [6] was < 100 nM.

In the case of `COC1CCCC1N1CCOc2c(Cl)c(-c3ccc(F)c4sc(N)c(C#N)c34)c(F)c3nc(OC[C@@]45CCCN4C[C@H](F)C5)nc1c23` (stereo partly drawn) [Compound 657, 2-amino-4-(8-chloro-10-fluoro-2-(((2R,7aS)-2-fluorotetrahydro-1H-pyrrolizin-7a(5H)-yl)methoxy)-4-(2-methoxycyclopentyl)-5,6-dihydro-4H-[1,4]oxazepino[5,6,7-de]quinazolin-9-yl)-7-fluorobenzo[b]thiophene-3-carbonitrile], the IC50 [1] is reported as < 5000 nM, the IC50 [2] is reported as < 100 nM and the IC50 [3] is reported as < 100 nM. The IC50 [4] was < 100 nM, the IC50 [5] was < 5000 nM and the IC50 [6] was < 100 nM.

`CC(O)CC1COc2c(Cl)c(-c3ccc(F)c4sc(N)c(C#N)c34)c(F)c3nc(OC[C@@]45CCCN4C[C@H](F)C5)nc(c23)N1CC(F)F` (stereo partly drawn) [Compound 659, 2-amino-4-(8-chloro-4-(2,2-difluoroethyl)-10-fluoro-2-(((2R,7aS)-2-fluorotetrahydro-1H-pyrrolizin-7a(5H)-yl)methoxy)-5-(2-hydroxypropyl)-5,6-dihydro-4H-[1,4]oxazepino[5,6,7-de]quinazolin-9-yl)-7-fluorobenzo[b]thiophene-3-carbonitrile] was tested, and the IC50 [1] was < 5000 nM, the IC50 [2] was < 100 nM and the IC50 [3] was < 100 nM. The IC50 [4] was < 100 nM, the IC50 [5] was < 5000 nM and the IC50 [6] was < 100 nM.

With `COC1CC(N2CCOc3c(Cl)c(-c4ccc(F)c5sc(N)c(C#N)c45)c(F)c4nc(OC[C@@]56CCCN5C[C@H](F)C6)nc2c34)C1` (stereo partly drawn) [Compound 660, 2-amino-4-(8-chloro-10-fluoro-2-(((2R,7aS)-2-fluorotetrahydro-1H-pyrrolizin-7a(5H)-yl)methoxy)-4-(3-methoxycyclobutyl)-5,6-dihydro-4H-[1,4]oxazepino[5,6,7-de]quinazolin-9-yl)-7-fluorobenzo[b]thiophene-3-carbonitrile] the IC50 [1] was < 5000 nM, the IC50 [2] was < 100 nM and the IC50 [3] was < 100 nM. The IC50 [4] was < 100 nM, the IC50 [5] was < 5000 nM and the IC50 [6] was < 100 nM.

For `N#Cc1c(N)sc2c(F)ccc(-c3c(Cl)c4c5c(nc(OC[C@@]67CCCN6C[C@H](F)C7)nc5c3F)N(C3CCC(NC(=O)C(F)F)C3)CCO4)c12` (stereo partly drawn) [Compound 673, N-(3-(9-(2-amino-3-cyano-7-fluorobenzo[b]thiophen-4-yl)-8-chloro-10-fluoro-2-(((2R,7aS)-2-fluorotetrahydro-1H-pyrrolizin-7a(5H)-yl)methoxy)-5,6-dihydro-4H-[1,4]oxazepino[5,6,7-de]quinazolin-4-yl)cyclopentyl)-2,2-difluoroacetamide], the IC50 [1] was < 5000 nM, the IC50 [2] was < 100 nM and the IC50 [3] was < 100 nM. For the same molecule, the IC50 [4] was < 100 nM, the IC50 [5] was < 5000 nM and the IC50 [6] was < 100 nM.

For `N#Cc1c(N)sc2c(F)ccc(-c3c(Cl)c4c5c(nc(OC[C@@]67CCCN6C[C@H](F)C7)nc5c3F)N(C3CCC(C#N)C3)CCO4)c12` (stereo partly drawn) [Compound 684, 2-amino-4-(8-chloro-4-(3-cyanocyclopentyl)-10-fluoro-2-(((2R,7aS)-2-fluorotetrahydro-1H-pyrrolizin-7a(5H)-yl)methoxy)-5,6-dihydro-4H-[1,4]oxazepino[5,6,7-de]quinazolin-9-yl)-7-fluorobenzo[b]thiophene-3-carbonitrile], the IC50 [1] was < 5000 nM, the IC50 [2] was < 100 nM and the IC50 [3] was < 100 nM. The IC50 [4] was < 100 nM, the IC50 [5] was < 5000 nM and the IC50 [6] was < 100 nM.

`N#Cc1c(N)sc2c(F)ccc(-c3c(Cl)c4c5c(nc(OC[C@@]67CCCN6C[C@H](F)C7)nc5c3F)N(C3CCN(CC(F)F)C3)CCO4)c12` (stereo partly drawn) [Compound 693, 2-amino-4-(8-chloro-4-(1-(2,2-difluoroethyl)pyrrolidin-3-yl)-10-fluoro-2-(((2R,7aS)-2-fluorotetrahydro-1H-pyrrolizin-7a(5H)-yl)methoxy)-5,6-dihydro-4H-[1,4]oxazepino[5,6,7-de]quinazolin-9-yl)-7-fluorobenzo[b]thiophene-3-carbonitrile] was tested, and the IC50 [1] was < 5000 nM, the IC50 [2] was < 100 nM and the IC50 [3] was < 100 nM. The IC50 [4] was < 100 nM, the IC50 [5] was < 5000 nM and the IC50 [6] was < 100 nM.

With `N#Cc1c(N)sc2c(F)ccc(-c3c(Cl)c4c5c(nc(OC[C@@]67CCCN6C[C@H](F)C7)nc5c3F)N(C3CCN(C(=O)C5CC5C#N)CC3)CCO4)c12` (stereo partly drawn) [Compound 703, 2-amino-4-(8-chloro-4-(1-(2-cyanocyclopropane-1-carbonyl)piperidin-4-yl)-10-fluoro-2-(((2R,7aS)-2-fluorotetrahydro-1H-pyrrolizin-7a(5H)-yl)methoxy)-5,6-dihydro-4H-[1,4]oxazepino[5,6,7-de]quinazolin-9-yl)-7-fluorobenzo[b]thiophene-3-carbonitrile] the IC50 [1] was < 5000 nM, the IC50 [2] was < 100 nM and the IC50 [3] was < 100 nM. The IC50 [4] was < 100 nM, the IC50 [5] was < 5000 nM and the IC50 [6] was < 100 nM.
